# Reference: patent US20100168146A1, “Composition Comprising (R)-Spiro[L-Azabicyclo[2.2.2]Octane-3,2'(3'H)-Furo[2,3-B]Pyridine (AZD0328) and its Use in the Treatment of Alzheimer's Disease, ADHD or Cognitive Dysfunction” (priority 2008, published 2010)
# “Also recorded” adds a separate entry of the source.
# Assays:
# [1] = system: Mouse lymphoma test; experiment: Mouse lymphoma test; format: cell-based
# Text: (§1) The genotoxic potential of AZD0328 has been evaluated in the Ames test and in the Mouse lymphoma test. AZD0328 was not mutagenic in either of these tests.
# [2] = system: Ames test; experiment: Ames test; format: cell-based
# Text: as §1
# [3] = system: rhesus monkeys; experiment: Spatial delayed response (SDR) task; format: in vivo, rhesus monkey (macaca mulatta)
# Text: AZD0328 at low doses improved performance in the spatial delayed response test in monkeys. Rhesus monkeys were trained in a spatial delayed response task. In this task, food-motivated monkeys observed one of several spatially-displaced wells being baited with a food reward. After a brief delay during which a shutter is drawn and the wells are covered, the monkey must indicate the position of the baited well to receive the food reward. The performance of groups of monkeys was titrated into a narrow range by changing the number of wells or the duration of the delay. Monkeys were tested extensively to establish baseline performance before being administered drug or vehicle. Intramuscular administration of 0.00048 or 0.0016 mg/kg AZD0328 evoked a sustained increase in the percentage of correct responses monkeys made when compared with responses of vehicle-treated monkeys.
# Rhesus monkey were trained in a spatial delayed response task. Middle doses of AZD0328 (0.0016 and 0.00048 mg/kg im) evoked a sustained improvement in rhesus monkey performance, while a higher dose (0.48 mg/kg) and a lower dose (0.000016 mg/kg) transiently impaired performance of the task (Table 2).
# [4] = system: dogs; experiment: Cardiovascular telemetry / ECG; format: in vivo; conditions: dog
# Procedure: The cardiovascular effects of orally administered AZD0328 were assessed dogs implanted with telemetry transmitters (Table 3). The main purpose of the study was to evaluate effects on the QT interval of the ECG during a 7-days dosing period followed by 5 days of recovery, thus enabling assessment of any accumulation of effects and the recovery back to baseline. Systolic, diastolic and mean arterial blood pressure, heart rate, lead II ECG and core body temperature were recorded continuously. The PR, QRS and QT intervals of the ECG were measured, and the QT interval was corrected for changes in heart rate using the method of Van de Water (QTcV).
# [5] = system: isolated perfused female rabbit hearts; experiment: Isolated perfused rabbit heart (Hondeghem model)
# Text: Proarrhythmic properties of AZD0328 were investigated in 6 isolated perfused female rabbit hearts according to the Hondeghem model (Table 3). Effects of AZD0328 on action potential duration at 60% of repolarisation (APD60), and Triangulation, Reverse-use dependence and Instability (T, R, I) of the action potential, were studied. Also, a “flag” was raised when T, R or I reached a critical threshold level, below which is considered safe, and the total number of flags was presented as increase in percentage flags. The % flags parameter is considered to be the most sensitive measure of proarrhythmia in this in vitro model, with a threshold for cause of concern at 2.5%. The % flags increased concentration-dependently above threshold at 9 and 30 μM. Although TRIad elements were present, there were no overt signs of proarrhythmia such as early-afterdepolarisations (EADs), Torsade de Pointes, or ventricular fibrillation. In this study the no adverse effect level (NOAEL) of AZD0328 for proarrhythmic signals was 3 μm.
# [6] = system: rats; experiment: Intestinal motility (charcoal meal test, glass bead test); format: in vivo; conditions: rat, oral
# Procedure: Effects of AZD0328 on small intestinal and colorectal motility were investigated in rats using the charcoal meal test and the glass bead test, respectively (Table 3). In the first part, evaluating intestinal transit, a test meal containing charcoal as a non-absorbable marker was administered to rats. In the second part, effects of oral administration of AZD0328 on colo-rectal transit time was evaluated.
# [7] = system: dog Purkinje fibre; experiment: Dog isolated cardiac Purkinje fibres, action potentials; conditions: stimulation 0.5 and 1 Hz
# Procedure: Effects of AZD0328 on cardiac action potentials were assessed in 4 dog Purkinje fibre preparations. (Table 3). The following action potential parameters were measured at the stimulation frequencies 0.5 and 1 Hz: action potential duration at 50% (APD50), 70% (APD70) and 90% (APD90) of repolarisation; the maximum velocity of the action potential upstroke (Vmax); the action potential amplitude (APA) and the resting membrane potential (RMP). At both stimulation frequencies, AZD0328 caused a concentration-dependent prolongation of APD50, APD70 and APD90, with significant effects at 5.6 μM and above. There was also an indication of proarrhythmic potential of the compound. A 10% increase in APD90 in the isolated dog Purkinje fibre is seen at concentrations between 5.6 and 16.8 μm.
# [8] = system: rats; experiment: 1 month repeated-dose oral toxicity; format: in vivo; conditions: rat, one month, high dose 65 mg/kg/day (300 μmol/kg/day)
# Procedure: The objective of this investigation was to study the toxicity of AZD0328 given orally to rats for 1 month. Four groups of rats, each consisting of 10 males and 10 females, were given 0, 2.2, 15 and 65 mg/kg/day ([…]) of AZD0328.
# [9] = system: human hepatocytes; experiment: Hepatocyte incubations (metabolites); format: in vitro ADME; conditions: four separate batches of human hepatocytes
# Procedure: Pyridinyl methylation of AZD0328 was a unique polar metabolite (M2) observed in dog hepatocytes. Other minor hydroxylation/oxidation and glucuronide conjugation products were detected in monkey, dog, rat, and guinea pig hepatocyte incubations and mini-pig hepatic microsome incubations. […] Analysis of plasma and urine samples from either orally or iv dosed rats confirmed N-oxide product of AZD0328 was a main product in the excretion and circulation. The percentage of AZD0328 N-oxide in the plasma from male rats was much higher than from females.
structure (smiles),measurement,setting,value
"c1cnc2c(c1)C[C@@]1(CN3CCC1CC3)O2 [AZD0328, (R)-Spiro[1-azabicyclo[2.2.2]octane-3,2′(3′H)-furo[2,3-b]pyridine]]",Mutagenicity / genotoxicity,[1],not genotoxic; also recorded: not mutagenic
same,Mutagenicity / genotoxicity,[2],not genotoxic; also recorded: not mutagenic
same,Duration of improved performance after a single dose,[3]; four of nine monkeys improved at middle doses,more than one month
same,Lower doses with no effect or transient impairment,[3]; rhesus monkeys,≥ 0.16 µg/kg
same,Percent correct responses,"[3]; rhesus monkeys, 0.016 mg/kg",non-significant increase
same,"Body temperature, PR or QRS interval","[4]; any dose level, 7 or 1 day dosing",no effect
same,BP and/or HR,[4]; oral gavage,increased at all doses.
same,Emesis,[4]; single doses 17.3 and 34.6 mg/kg (mid and high dose groups),frequent vomiting; also recorded: severe emesis. BP and/or HR
same,NOAEL in the proarrhythmic isolated heart assay,[5],0.9 µM
same,NOAEL for proarrhythmic signals,[5]; isolated perfused rabbit heart,3 μm
same,Dose with inhibition of small- and large-intestinal motility,[6],≥ 130 µmol/kg
same,"Concentration with significant prolongation of APD50, APD70 and APD90",[7],≥ 5.6 µM
same,Target organ pathology (kidney),[8],vacuolation of the tubular cells
same,Metabolites in hepatocyte incubations,[9],no metabolites were detected
